Results taken from patent publication US11155546B2, “4,6,7-trisubstituted 1,2-dihydropyrrolo[3,4-c]pyridin/pyrimidin-3-one derivatives and uses thereof” (SHANGHAI HAIYAN PHARMACEUTICAL TECHNOLOGY CO., LTD., priority 2017, dated 2021).

What was measured:
[1] = target: wild-type EGFR kinase (Homo sapiens (Human), UniProt P00533); assay: Wild type EGFR kinase inhibition test (z-lyte); type: biochemical; settings: 10 μM ATP; read-out: EGFR WT IC50
Text: All the following reagents used in z-lyte test are commercially available from Invitrogen.
The calculation method for the inhibition ratio (referring to the specification of Invitrogen, PV3363) was as follows: ER=Coumarin Emission(450 nm)/Fluorescein Emission(520 nm) 1. Phosphorylation ratio=(1−((ER×C3520nm−C3450nm)/((C1450nm−C3450nm)+ER×(C3520nm−C1520nm))))×100% 2. Inhibition ratio (IR)=(1−phosphorylation ratio of the test compound)/(phosphorylation ratio of C2))×100% 3.
The half-inhibitory concentration IC50 was calculated by fitting with XLFIT 5.0 software (IDBS, UK).

[2] = target: βBTK Y223 (Homo sapiens (Human), UniProt Q06187); assay: Intracellular βBTK Y223 phosphorylation HTRF in Ramos cells; type: cell-based
Sequence of βBTK Y223 (Q06187 whole entry): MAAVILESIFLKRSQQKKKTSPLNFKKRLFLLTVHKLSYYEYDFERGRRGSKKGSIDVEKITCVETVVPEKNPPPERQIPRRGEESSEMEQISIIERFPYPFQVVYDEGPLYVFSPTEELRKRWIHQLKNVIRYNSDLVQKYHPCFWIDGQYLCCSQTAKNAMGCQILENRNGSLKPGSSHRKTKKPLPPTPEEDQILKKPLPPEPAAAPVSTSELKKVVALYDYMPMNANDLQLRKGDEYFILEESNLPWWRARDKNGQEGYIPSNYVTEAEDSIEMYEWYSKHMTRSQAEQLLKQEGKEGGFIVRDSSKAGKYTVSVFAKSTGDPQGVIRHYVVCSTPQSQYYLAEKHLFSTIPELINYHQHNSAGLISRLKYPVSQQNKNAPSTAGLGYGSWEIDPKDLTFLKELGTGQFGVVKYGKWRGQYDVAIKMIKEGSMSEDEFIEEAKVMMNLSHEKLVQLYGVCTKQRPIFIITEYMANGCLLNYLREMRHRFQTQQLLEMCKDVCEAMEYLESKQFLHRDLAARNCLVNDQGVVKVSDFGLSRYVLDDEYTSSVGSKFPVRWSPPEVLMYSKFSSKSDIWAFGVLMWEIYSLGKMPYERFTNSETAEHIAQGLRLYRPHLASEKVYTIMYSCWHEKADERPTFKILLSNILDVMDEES
Description: The compound was predissolved in 100% DMSO. […] 20 μl of lysate (4× lysate: blocked mother liquor is 25:1) was added to each well and incubated for 30 minutes at 25° C. on a shaker. It was shaken on an oscillator at 800 rpm for 1 minute. […] The half-inhibitory concentration IC50 was calculated by fitting with XLFIT 5.0 software (IDBS, UK).

[3] = target: BTK WT (Homo sapiens (Human), UniProt Q06187); assay: Lantha screening kinase reaction, inhibition of BTK WT; type: biochemical
Sequence of BTK WT (Q06187 whole entry): as above
Description: The compound was predissolved in 100% DMSO. 10 mM drug stock solution was obtained by dissolution at room temperature and then serially diluted with 8 vol % DMSO solution to a final concentration of 10-0.005 μM. […] Among the wells, the kinase in the blank well was replaced with a reaction buffer and the kinase well (Enzyme) was not added with any drug. After shaking at 25° C. for 60 minutes in the dark, 10 μl of Detection Solution (mixture of Invitrogen PV3528 and EDTA, which was diluted with TR-FRET dilution buffer, the working concentration of EDTA was 5 mM, the working concentration of Lanthascreening Tb PY20 antibody was 0.2 nM) was added and shaken at room temperature for 30 minutes. The plates were read on a VictorX5 fluorescent plate reader (PerkinElmer) and the light absorption at an excitation wavelength of 340 nm and emission wavelengths of 500 nm and 520 nm was measured.
The calculation method for the inhibition ratio (referring to the specification of Invitrogen, PV3363) was as follows: Emission ratio (ER):Coumarin Emission (520 nm)/Fluorescein Emission (500 nm) 1. The inhibition ratio (IR):(ERkinase−ERtest compound)/(ERkinase−ERblank)×100%. 2.
The half-inhibitory concentration IC50 was calculated by fitting with XLFIT5.0 software (IDBS, UK).

[4] = in vivo; settings: mouse, in vivo, po, 30 mg/kg
Description: Test Animals: ICR mice, weight 28-30 g, male, totally 12, purchased from SLAC Laboratory Animal Co., Ltd. Mice were fasting one night before administration and freely fed 4 hours after administration.
Administration and Blood collection: 6 mice were administered intragastrically (PO) in a administered dosage of 30 mg/kg and a administered volume of 10 mL/kg. One administration route was subjected with 6 mice, blood samples of three mice were collected at one time point, and blood samples of another three mice were collected at alternate time point alternately. Blood was collected at 8 time points of 0.083, 0.25, 0.5, 1, 2, 4, 8, 24 h after administration respectively.
Animals were manually controlled at the time of collection and approximately 80 μL of blood was collected from the mice fundus venous plexus into a tube containing K2EDTA. The collected blood sample was put on wet ice, centrifuged within 15 min (8000 rpm, 4 min at 4° C.), and then the plasma sample was taken and stored at minus 20° C. till analysis. The compounds were prepared on the day of the experiment.
Solvent excipient information: DMSO (brand: Sigma, batch number: SHBD2446V); 2-hydroxypropyl-3-cyclodextrin (brand: Sigma, batch number: BCBN8227V), acetic acid (brand: Sinopharm Group, batch number: 20150616), sodium acetate (Brand: GENERAL-REAGENT, batch number: P1246037).
Preparation of a 3 mg/mL PO dosing solution: the solvent was a solution of 5% DMSO and 95% PH4.5 (sodium acetate-acetate) in 20% of 2-hydroxypropyl-β-cyclodextrin.
Analytical method: Plasma samples were analyzed by liquid chromatography-tandem mass spectrometry (Instrument type: Triple Quad™ 4000).
Preparation of the standard curve: preparing a standard curve of the test compound 1n the plasma matrix of ICR mice with a linear range of 1.00-3000 ng/mL, and preparing control samples at low, medium and high concentrations of 3 ng/mL, 500 ng/mL, and 2400 ng/mL respectively.
Treatment of biological samples: the frozen plasma samples were thawed on ice, and after the samples were thawed, they were vortexed on a vortex for 5 min. 20 μL of plasma sample was added to a 96-well plate, and 200 μL of acetonitrile (brand: Merck, Lot: 1854029643) containing an internal standard dexamethasone (Brand: NIFDC, Lot: 1N2V-DPGY, 2000 ng/mL) was added to precipitate protein, which were vortexed for 5 min, and then centrifuged at 3700 rpm and 4° C. for 15 min. The supernatant was extracted and twice centrifuged under the same conditions, and finally 2 μL of the supernatant solution was analyzed by LC-MS/MS.

Sequence of wild-type EGFR kinase (P00533 25-1210): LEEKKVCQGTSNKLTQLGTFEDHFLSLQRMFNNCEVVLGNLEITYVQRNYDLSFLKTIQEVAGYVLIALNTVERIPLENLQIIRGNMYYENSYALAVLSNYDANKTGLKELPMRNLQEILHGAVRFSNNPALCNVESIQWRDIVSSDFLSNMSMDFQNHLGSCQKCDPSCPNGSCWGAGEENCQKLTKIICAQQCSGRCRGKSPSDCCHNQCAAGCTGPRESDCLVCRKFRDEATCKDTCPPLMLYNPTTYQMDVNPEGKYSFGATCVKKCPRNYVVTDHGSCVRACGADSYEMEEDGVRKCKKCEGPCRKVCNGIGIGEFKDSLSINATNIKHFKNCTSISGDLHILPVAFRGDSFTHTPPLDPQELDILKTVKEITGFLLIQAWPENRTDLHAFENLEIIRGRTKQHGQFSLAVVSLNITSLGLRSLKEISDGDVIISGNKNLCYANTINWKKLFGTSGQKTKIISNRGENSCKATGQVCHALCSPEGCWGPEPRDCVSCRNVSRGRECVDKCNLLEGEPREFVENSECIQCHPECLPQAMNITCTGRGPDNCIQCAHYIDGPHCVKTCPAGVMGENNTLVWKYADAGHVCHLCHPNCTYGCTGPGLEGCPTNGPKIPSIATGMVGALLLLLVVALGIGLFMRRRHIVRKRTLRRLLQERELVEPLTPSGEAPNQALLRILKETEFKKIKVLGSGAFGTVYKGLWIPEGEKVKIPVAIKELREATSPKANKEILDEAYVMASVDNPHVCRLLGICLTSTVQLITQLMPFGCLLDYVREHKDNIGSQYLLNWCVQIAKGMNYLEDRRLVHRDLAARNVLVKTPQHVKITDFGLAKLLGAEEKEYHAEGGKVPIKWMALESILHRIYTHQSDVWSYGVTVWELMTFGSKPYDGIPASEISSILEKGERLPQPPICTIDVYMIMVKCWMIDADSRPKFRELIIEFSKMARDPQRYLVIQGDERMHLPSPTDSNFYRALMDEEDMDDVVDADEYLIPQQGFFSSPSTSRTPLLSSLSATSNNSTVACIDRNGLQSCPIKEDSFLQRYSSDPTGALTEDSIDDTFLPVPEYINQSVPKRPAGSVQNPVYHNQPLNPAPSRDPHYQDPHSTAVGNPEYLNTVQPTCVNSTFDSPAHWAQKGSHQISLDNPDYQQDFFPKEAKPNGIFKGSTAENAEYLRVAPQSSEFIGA

Compound | IC50 [1] [µM] | IC50 [3] [µM] | also measured
C=CC(=O)N1CC2CN(c3nc(Nc4cnn(C)c4)c4c(c3F)CNC4=O)CC2C1 (stereo not shown) [Compound G-76] | 1.36 | 0.0008 | IC50 [2]: 0.002 µM
C=CC(=O)N1CCCC(Nc2nc(Nc3ccc(N4CCOCC4C)c(F)c3)c3c(c2F)CNC3=O)C1 (stereo not shown) [Compound G-42] | 5.19 | 0.005 | Area under curve AUC [4]: 1.266 µg·h/mL; Maximum blood concentration Cmax [4]: 0.945 µg/mL; Oral relative bioavailability F (%) [4]: 12.3%; Tmax [4]: 15 min; half-time T1/2 [4]: 104 min
C=CC(=O)N1CCCCC(Nc2nc(Nc3ccc(OCCOC)cc3)c3c(c2F)CNC3=O)C1 (stereo not shown) [Compound G-3, 6-(1-acryloylazacycloheptane-3-ylamino)-7-fluoro-4-(4-(2-methoxyethoxy)phenylamino)-1H-pyrrolo[3,4-c]pyridine-3 (2H)-one] | 2.29 | 0.002 | IC50 [2]: 0.011 µM
C=CC(=O)N1CCCC(Nc2nc(Nc3ccc(N4CCN(C5COC5)CC4C)cc3)c3c(c2F)CNC3=O)C1 (stereo not shown) [Compound G-34] | 3.17 | 0.005 | Area under curve AUC [4]: 1.869 µg·h/mL; Maximum blood concentration Cmax [4]: 1.99 µg/mL; Oral relative bioavailability F (%) [4]: 28.6%; Tmax [4]: 4.8 min; half-time T1/2 [4]: 86.4 min
C=CC(=O)N1CCC2CN(c3nc(Nc4cnn(C)c4)c4c(c3F)CNC4=O)CC21 (stereo not shown) [Compound G-87] |  | 0.001 | IC50 [2]: 0.004 µM
C=CC(=O)N1CCCC(Nc2nc(Nc3ccc(N4CCOCC4)c(F)c3)c3c(c2F)CNC3=O)C1 (stereo not shown) [Compound G-33] | 7.17 | 0.005 | Area under curve AUC [4]: 1.193 µg·h/mL; Maximum blood concentration Cmax [4]: 0.964 µg/mL; Oral relative bioavailability F (%) [4]: 15.6%; Tmax [4]: 4.8 min; half-time T1/2 [4]: 71.4 min
C=CC(=O)N1CCC[C@@H](Nc2nc(-c3cnn(C)c3)c3c(c2F)CNC3=O)C1 [Compound G-111] | > 10 | 0.069 | AUC ([4]; male, ICR): 2.18 µg·h/mL; Cmax ([4]; male, ICR): 3.49 µg/mL; Tmax ([4]; male, ICR): 4.8 min; bioavailability ([4]; male, ICR): 79.7%; half-life ([4]; male, ICR): 356 min
C=CC(=O)N1CCCC(Nc2nc(Nc3cnn(C)n3)c3c(c2F)CNC3=O)C1 (stereo not shown) [Compound G-35] |  |  | IC50 [2]: 0.035 µM
C=CC(=O)N1CC(Nc2nc(Nc3ccc(N4CCOCC4)c(F)c3)c3c(c2F)CNC3=O)CCC1C (stereo not shown) [Compound G-41] |  | 0.002 | IC50 [2]: 0.003 µM
C=CC(=O)N1CCCC(Nc2nc(Nc3ccc(N4CCOCC4C)cc3)c3c(c2F)CNC3=O)C1 (stereo not shown) [Compound G-32] | 5.34 | 0.005 | Area under curve AUC [4]: 1.463 µg·h/mL; Maximum blood concentration Cmax [4]: 0.8377 µg/mL; Oral relative bioavailability F (%) [4]: 14.7%; Tmax [4]: 30 min; half-time T1/2 [4]: 72.6 min
C=CC(=O)N1CCCC(Nc2nc(-c3cnn(C4CC4)c3)c3c(c2F)CNC3=O)C1 (stereo not shown) [Compound G-45] |  | 0.069 | IC50 [2]: 0.109 µM
C=CC(=O)N1CCC(Nc2nc(Nc3ccc(OCCOC)cc3)c3c(c2F)CNC3=O)CC1 [Compound G-6] |  |  | IC50 [2]: 0.029 µM
C=CC(=O)N1CCCC(N(C)c2nc(-c3cnc(C)s3)c3c(c2F)CNC3=O)C1 (stereo not shown) [Compound G-66, 6-((1-acryloylpiperidin-3-yl)(methyl)amino)-7-fluoro-4-(2-methylthiazole-5-yl)-1H-pyrrolo[3,4-c]pyridine-3(2H)-one] | > 10 | 0.015 | 
C=CC(=O)N1CCCC(Nc2nc(Nc3cc(C)ns3)c3c(c2F)CNC3=O)C1 (stereo not shown) [Compound G-23] | 1.79 | 0.005 | Area under curve AUC [4]: 0.645 µg·h/mL; Maximum blood concentration Cmax [4]: 0.8787 µg/mL; Oral relative bioavailability F (%) [4]: 14%; Tmax [4]: 4.8 min; half-time T1/2 [4]: 195 min
C=CC(=O)N1CCCC(N(C)c2nc(-c3cnn(CCN4CCOCC4)c3)c3c(c2F)CNC3=O)C1 (stereo not shown) [Compound G-64, 6-((1-acryloylpiperidin-3-yl)(methyl)amino)-7-fluoro-4-(1-(2-morpholinethyl)-1H-pyrazole-4-yl)-1H-pyrrolo[3,4-c]pyridine-3(2H)-one] | > 10 | 0.062 | 
C=CC(=O)N1CCCC(Nc2nc(-c3cnn(C)c3)c3c(c2F)CNC3=O)C1 (stereo not shown) [Compound G-54] | > 10 | 0.015 | 
C=CC(=O)N1CCCC(Nc2nc(Nc3ccc(C(=O)N4CCOCC4)cc3)c3c(c2F)CNC3=O)C1 (stereo not shown) [Compound G-24] | 1.79 | 0.005 | 
C=CC(=O)N1CC2CCN(c3nc(Nc4cnn(C)c4)c4c(c3F)CNC4=O)C2C1 (stereo not shown) [Compound G-84] | > 10 | 0.089 | 
C=CC(=O)N1CCC2(CCN(c3nc(-c4cnn(C)c4)c4c(c3F)CNC4=O)C2)C1 (stereo not shown) [Compound G-77] | > 10 | 0.051 | 
C=CC(=O)N1CCCCC(N(C)c2nc(Nc3ccc(N4CCOCC4)cc3)c3c(c2F)CNC3=O)C1 (stereo not shown) [Compound G-73, 6-((1-acryloylazacycloheptan-3-yl)(methyl)amino)-7-fluoro-4-(4-morpholin)-1H-pyrrolo[3,4-c]pyridine-3(2H)-one] | 1.56 | 0.005 | 
C=CC(=O)N1CCC[C@@H](N(C)c2nc(-c3cnn(C)c3)c3c(c2F)CNC3=O)C1 [Compound G-113] | 6.17 | 0.005 | 
C=CC(=O)N1CCC[C@H](N(C)c2nc(-c3cnn(C)c3)c3c(c2F)CNC3=O)C1 [Compound G-112] | > 10 | 0.018 | 
C=CC(=O)N1CCCC(Nc2nc3c(c(-c4cnn(C)c4)n2)C(=O)NC3)C1 (stereo not shown) [Compound G-58, 2-(1-acryloylpiperidin-3-ylamino)-4-(1-methyl-1H-pyrazole-4-yl)-6,7-dihydrogen-5H-pyrrolo[3,4-d]pyrimidine-5(2H)-one] | > 10 | 0.08 | 
C=CC(=O)N1CC(N(C)c2nc(-c3cnn(C)c3)c3c(c2F)CNC3=O)CCC1C (stereo not shown) [Compound G-65, 6-((1-acryloyl-6-methylpiperidin-3-yl)(methyl)amino)-7-fluoro-4-(1-methyl-1H-pyrazole-4-yl)-1H-pyrrolo[3,4-c]pyridine-3(2H)-one] | > 10 | 0.007 | 
C=CC(=O)N1CCCC(Nc2nc(-c3cnn(C(F)F)c3)c3c(c2F)CNC3=O)C1 (stereo not shown) [Compound G-48] |  |  | IC50 [2]: 0.062 µM
C=CC(=O)N1CCC[C@H](Nc2nc(Nc3ccc(N4CCOCC4)cc3)c3c(c2F)CNC3=O)C1 [Compound G-114] | 4.13 | 0.034 | AUC ([4]; male, ICR): 1.07 µg·h/mL; Cmax ([4]; male, ICR): 1.24 µg/mL; Tmax ([4]; male, ICR): 4.8 min; bioavailability ([4]; male, ICR): 13.7%; half-life ([4]; male, ICR): 148 min
C=CC(=O)N1CCC(Nc2nc(Nc3ccc(OCCOC)cc3)c3c(c2F)CNC3=O)C1 (stereo not shown) [Compound G-9] | 1.01 | 0.007 | 
